Measured values: patent publication US10280401B2, “Method of measuring inhibition of phosphatidylcholine export transport and/or formation activity” (Biotranex, LLC, priority 2015, dated 2019)

Experiments:
[1] = test system: PC export transport activity; assay: Inhibition of PC export transport activity in human hepatocytes (d9-choline, taurocholic acid, LC/MS/MS); type: cell-based; settings: Hepatocyte, 100 μg/mL d9-choline, 5 mM taurocholic acid, 2 hours; for inhibition at 1 µM: drug 1 μM; for inhibition at 10 µM: drug 10 μM; for inhibition at 100 µM: drug 100 μM
Description: (§1) The effect of a test agent in terms of percentage (%) of inhibition on PC export transport and/or formation activity is determined by the following equation: […]
(§2) Fifty mL InVitroGRO HT medium was pre-warmed in a 37° C. water bath. A vial of hepatocyte was removed from a liquid N2 tank and quickly warmed in a 37° C. water bath by holding in hand with slow rotation. As soon as the edge of the frozen cells was separated from the wall of the vial, the frozen cells were poured into the pre-warmed HT medium and the remaining cells in the vial were collected using pipette. The tube was centrifuged at 50 g, 25° C. for 5 minutes, the supernatant was removed and the cell pellet was re-suspended in 8 mL of pre-warmed Williams E buffer, the cell numbers were counted in a hemocytometer. […] The cells were counted in 0.4% Trypan blue (80 μL Williams E buffer+10 μL Trypan blue stock+10 μL cells). The hepatocyte concentration was adjusted with Williams E buffer to meet the objectives of various experiments.
(§3) LC/MS/MS assays: Liquid chromatography was carried out using a Shimadzu (Columbia, Md.) HPLC system consisting of an SCL-10 Avp system controller, two LC-10 ADvp pumps, a CTC HTC PAL autosampler, a Shimadzu SPD-10 ADvp UV detector and an automated switching valve. The switching valve was used to divert the column effluent to either waste or to the MS instrument. The Shimadzu HPLC system was used for sample injection and analyte separation. Each sample was loaded onto a reverse phase column, Phenomenex (Torrance, Calif.) Luna C85μ2 mm×50 mm. The column chamber's temperature was ambient. The initial HPLC mobile phase conditions used for separation and elution of analytes comprised 50% acetonitrile in water containing 0.1% formic acid (A) and isopropanol:acetonitrile (9:1) (B). The flow rate was 0.5 mL/min. The amount of B in the mobile phase was ramped linearly up to 62% over a 0.5-minute period followed by a slow increase to 63% B in 4.5 minutes, then a rapid increase to 95% B in 0.1 min. After holding at 95% B for 2.3 minutes, the mobile phase was reset to the initial conditions in 0.1 minute. The analytical column was equilibrated with the starting mobile phase for 2.5 minutes. The total run time for each sample analysis was approximately 10 minutes.
(§4) The HPLC elute was injected into an AB Sciex AP14000 LC/MS/MS system (Framingham, Mass.) equipped with a Turbo IonSpray source set with a desolvation temperature of 450° C. Nitrogen was used as curtain gas, nebulizer gas, heater gas, and collision gas. Data for PC was acquired in the positive ion mode using multiple reaction monitoring methods (MRM). The ion transitions of the MRM method for specific detection of PC species were developed in standard fashion. Ionspray voltage was set at 4000 V and the collision gas (CAD) set at 6. Declustering potential and collision energy was set at 50 and 42 respectively for PC. The PC species were monitored using the following transitions: 768→193, 770→193, 796→193, 798→193, 792→193, 794→193, 816→193. (S)-(+)-Methyl 2-(4,5,6,7-tetrahydrothieno[3,2-c]pyridin-5-yl)-2-(2-chlorophenyl)acetate hydrogensulfate was used as an internal standard with the following ion transition: 322.2→152.1. Propane-1-sulfonic acid {3-[5-(4-chlorophenyl)-1H-pyrrolo[2,3-b]pyridine-3-carbonyl]-2,4difluoro-phenyl}-amide was also used as an internal standard with the following ion transition: 490.1→383.1.
(§5) Data analysis: Extracellular concentrations of PC were determined by LC/MS/MS MRM analysis of the 4000 RPM supernatant fractions post-incubation. Cellular concentrations of PC were determined by LC/MS/MS MRM of the extracts of hepatocytes post incubation. PC export transport and/or formation activity and test agent percent inhibition were calculated using the following equations: […]

[2] = test system: PC export transport activity; assay: Inhibition of PC export transport activity in rat hepatocytes (d9-choline, taurocholic acid, LC/MS/MS); type: cell-based; settings: Hepatocyte, 100 μg/mL d9-choline, 5 mM taurocholic acid, 2 hours; for inhibition at 1 µM: drug 1 μM; for inhibition at 10 µM: drug 10 μM; for inhibition at 100 µM: drug 100 μM
Description: as §1, §2, §3, §4, §5

SMILES	inhibition at 1 µM [1]	inhibition at 10 µM [1]	inhibition at 100 µM [1]	inhibition at 1 µM [2]	inhibition at 10 µM [2]	inhibition at 100 µM [2]
O=C(O)CCCC[C@@H]1SC[C@@H]2NC(=O)N[C@@H]21 [Biotin, biotin]	≤ 30%	≤ 30%	≤ 30%	≤ 30%	≤ 30%	≤ 30%
CN(C)CCCN1c2ccccc2Sc2ccc(Cl)cc21 [Chlorpromazine, chlorpromazine]	≤ 30%	30 to 70%	≥ 70%	30 to 70%	≥ 70%	≥ 70%
Clc1ccccc1C(c1ccccc1)(c1ccccc1)n1ccnc1 [Clotrimazole, clotrimazole]				≤ 30%	≤ 30%	≥ 70%
COC1=CC(=O)C[C@@H](C)[C@]12Oc1c(Cl)c(OC)cc(OC)c1C2=O [Griseofulvin, griseofulvin]				≤ 30%	30 to 70%	≥ 70%
CC(=O)N1CCN(c2ccc(OCC3COC(Cn4ccnc4)(c4ccc(Cl)cc4Cl)O3)cc2)CC1 (stereo not drawn) [Ketoconazole, ketoconazole]	≤ 30%	30 to 70%	≥ 70%	30 to 70%	30 to 70%	≥ 70%
CC(C)(S)[C@@H](N)C(=O)O [Penicillamine, penicillamine]	≤ 30%	≤ 30%	≤ 30%			
CC1=C(CC(=O)O)c2cc(F)ccc2/C1=C\c1ccc([S+](C)[O-])cc1 (stereo not drawn) [Sulindac, sulindac]				≤ 30%	30 to 70%	≥ 70%
Cc1c(C)c2c(c(C)c1O)CCC(C)(COc1ccc(CC3SC(=O)NC3=O)cc1)O2 (stereo not drawn) [Troglitazone, troglitazone]	≤ 30%	30 to 70%	≥ 70%			
